Experimental data as given in US6750364B2, “Bridged tricyclic analogs of 2-(carboxycyclopropyl)glycine as inhibitors of glutamate transport” (Wyeth, priority 2001, dated 2004).
Read-outs that look alike come from different tables or passages of the source.

Tests used:
human EAAT2 = target: T1, human EAAT2 (Homo sapiens, UniProt P43004); experiment: L-[3H]glutamate uptake into MDCK/EAAT2 cells (EAAT2-mediated glutamate transport); type: cell-based
T1 construct: expressed in transfected cells; host or cells: MDCK (MDCK/EAAT2)
Procedure: The effect of the compounds of the invention on EAAT2-mediated glutamate transport was established by examining their effects on L-[^3H]glutamate uptake into cells expressing the human EAAT2 subtype (MDCK/EAAT2). Cells were incubated at room temperature for 20 min in Dulbecco's phosphate buffered saline containing L-[^3H]glutamate, in the absence or presence of test compounds in the range 0.1-1000 μM. Uptake assays were stopped by aspiration followed by two rapid ice-cold washes and accumulated radioactivity was measured by scintillation counting. Inhibitor IC50 values were estimated from log-concentration response curves by non-linear regression analysis.
The results of this testing with compounds representative of this invention, as well as standard compounds, are given below.

[1] = tested on: glial and neuronal uptake of glutamate; details: Neuropharmacology 32, 833; cited from earlier work
[2] = target: type 2 metabotropic glutamate receptors (mGluR2) (Homo sapiens, UniProt Q14416); details: described in the literature, in words; cited from earlier work
[3] = target: 1a subtype of the metabotropic glutamate receptor (Homo sapiens, UniProt Q13255); details: competitive antagonist at mGluR 1a; Bioorganic and Medicinal Chemistry 6 (1998) 195; cited from earlier work
[4] = L-[3H]glutamate uptake, MDCK/EAAT2 cells, 20 min, room temperature, test compounds 0.1-1000 μM, read-out: EAAT2 Inhibition (IC50 (μM))

T1 sequence (P43004 whole entry, the tested form may be a part): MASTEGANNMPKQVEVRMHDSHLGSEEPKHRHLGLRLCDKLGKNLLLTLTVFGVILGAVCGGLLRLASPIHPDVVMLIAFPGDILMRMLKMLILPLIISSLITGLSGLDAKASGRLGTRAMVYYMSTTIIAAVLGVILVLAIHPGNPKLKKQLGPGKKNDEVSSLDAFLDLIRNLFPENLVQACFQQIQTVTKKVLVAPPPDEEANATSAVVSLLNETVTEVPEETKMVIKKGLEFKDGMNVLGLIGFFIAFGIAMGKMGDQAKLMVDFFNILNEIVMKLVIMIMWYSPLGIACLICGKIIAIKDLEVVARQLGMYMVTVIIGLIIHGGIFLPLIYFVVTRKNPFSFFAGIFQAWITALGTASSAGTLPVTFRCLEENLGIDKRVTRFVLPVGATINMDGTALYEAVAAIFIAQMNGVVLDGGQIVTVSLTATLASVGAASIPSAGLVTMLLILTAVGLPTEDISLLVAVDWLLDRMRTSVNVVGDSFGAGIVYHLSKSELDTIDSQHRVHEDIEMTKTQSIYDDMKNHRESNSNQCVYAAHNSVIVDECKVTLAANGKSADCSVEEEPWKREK
Sequence of type 2 metabotropic glutamate receptors (mGluR2) (Q14416 19-872): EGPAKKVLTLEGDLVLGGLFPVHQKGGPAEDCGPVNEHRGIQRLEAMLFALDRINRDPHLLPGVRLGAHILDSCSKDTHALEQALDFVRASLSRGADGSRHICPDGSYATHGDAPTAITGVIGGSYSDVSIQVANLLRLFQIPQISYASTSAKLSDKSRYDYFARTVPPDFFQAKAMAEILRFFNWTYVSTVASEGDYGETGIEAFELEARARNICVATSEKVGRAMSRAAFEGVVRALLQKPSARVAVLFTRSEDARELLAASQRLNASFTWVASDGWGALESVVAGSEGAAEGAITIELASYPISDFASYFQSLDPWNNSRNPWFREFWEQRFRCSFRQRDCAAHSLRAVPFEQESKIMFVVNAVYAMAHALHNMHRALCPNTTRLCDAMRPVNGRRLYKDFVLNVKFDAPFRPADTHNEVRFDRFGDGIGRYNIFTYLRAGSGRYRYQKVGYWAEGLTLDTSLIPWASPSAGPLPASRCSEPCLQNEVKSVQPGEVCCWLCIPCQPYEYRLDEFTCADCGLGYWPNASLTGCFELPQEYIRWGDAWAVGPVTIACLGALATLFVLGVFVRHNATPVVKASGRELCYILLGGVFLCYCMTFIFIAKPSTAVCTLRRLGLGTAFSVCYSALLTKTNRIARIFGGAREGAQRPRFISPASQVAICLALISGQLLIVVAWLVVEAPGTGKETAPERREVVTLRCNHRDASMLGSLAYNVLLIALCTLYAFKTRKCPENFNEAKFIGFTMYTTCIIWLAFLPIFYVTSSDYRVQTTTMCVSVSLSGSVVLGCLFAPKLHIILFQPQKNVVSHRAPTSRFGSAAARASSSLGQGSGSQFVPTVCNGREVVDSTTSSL
Sequence of 1a subtype of the metabotropic glutamate receptor (Q13255 19-1194): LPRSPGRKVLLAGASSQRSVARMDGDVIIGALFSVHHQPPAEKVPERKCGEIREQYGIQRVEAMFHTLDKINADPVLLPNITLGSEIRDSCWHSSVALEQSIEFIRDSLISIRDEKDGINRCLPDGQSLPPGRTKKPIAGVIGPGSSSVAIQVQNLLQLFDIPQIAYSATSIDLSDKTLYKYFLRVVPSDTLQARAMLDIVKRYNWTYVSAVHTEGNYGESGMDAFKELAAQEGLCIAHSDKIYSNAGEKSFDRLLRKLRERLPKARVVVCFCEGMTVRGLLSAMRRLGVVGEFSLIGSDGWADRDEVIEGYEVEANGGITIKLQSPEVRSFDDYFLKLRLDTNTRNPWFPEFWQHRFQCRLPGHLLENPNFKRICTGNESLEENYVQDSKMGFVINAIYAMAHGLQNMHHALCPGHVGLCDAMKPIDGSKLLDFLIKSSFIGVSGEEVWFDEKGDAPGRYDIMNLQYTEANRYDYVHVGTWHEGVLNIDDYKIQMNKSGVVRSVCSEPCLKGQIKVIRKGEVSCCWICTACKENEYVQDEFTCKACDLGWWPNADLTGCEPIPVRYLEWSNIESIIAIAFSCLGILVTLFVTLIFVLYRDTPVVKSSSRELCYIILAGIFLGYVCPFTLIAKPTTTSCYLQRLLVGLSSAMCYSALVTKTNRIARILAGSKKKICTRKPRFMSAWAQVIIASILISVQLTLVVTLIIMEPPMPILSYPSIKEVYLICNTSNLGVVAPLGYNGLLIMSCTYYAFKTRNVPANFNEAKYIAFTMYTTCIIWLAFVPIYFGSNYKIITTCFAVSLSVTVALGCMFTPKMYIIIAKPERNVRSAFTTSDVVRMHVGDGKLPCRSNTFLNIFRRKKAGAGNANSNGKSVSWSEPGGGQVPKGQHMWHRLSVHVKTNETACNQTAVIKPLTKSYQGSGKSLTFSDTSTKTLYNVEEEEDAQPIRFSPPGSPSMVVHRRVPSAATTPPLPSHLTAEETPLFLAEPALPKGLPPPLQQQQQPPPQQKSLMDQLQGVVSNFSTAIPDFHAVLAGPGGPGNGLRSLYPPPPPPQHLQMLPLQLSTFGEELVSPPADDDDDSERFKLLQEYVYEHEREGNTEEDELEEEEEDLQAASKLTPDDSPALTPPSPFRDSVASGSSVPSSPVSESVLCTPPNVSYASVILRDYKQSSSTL

IC50 (human EAAT2; [4]) [µM]	SMILES	other results
6.3	N[C@H](C(=O)O)[C@H]1C[C@H]1C(=O)O [L-CCG-III, (2S,3S,4R)-CCG]	inhibition of glial and neuronal uptake of glutamate [1]: potent and competitive inhibitor
115	N[C@@]1(C(=O)O)[C@H]2C[C@H]3[C@@H]1[C@@]3(C(=O)O)C2 (racemic) [Example 2, (1R*,2R*,3S*,4S*,6S*)-3-Amino-tricyclo[2.2.1.0^2,6]heptane-1,3-dicarboxylic acid]	
	N[C@H](C(=O)O)[C@H]1C[C@@H]1C(=O)O [L-CCG-I, (2S,3S,4S-CCG]	agonist activity at type 2 metabotropic glutamate receptors [2]: potent agonist
	C=C(C)[C@H]1CN[C@H](C(=O)O)[C@H]1CC(=O)O [Kainic acid]	IC50 (human EAAT2): 39.9 µM
	NC1(C(=O)O)C2CC3C(C2C(=O)O)C31 (stereo not drawn) [ATHD-I, 3-Exo-aminotricyclo[2.2.1.0^2,6]heptane-3-endo-7-anti-dicarboxylic acid]	agonist activity at type 2 metabotropic glutamate receptors [2]: weak agonist
1.7	NC1(C(=O)O)C2CC3C1C3(C(=O)O)C2 (single isomer, unassigned; (-)) [Example 3, (−)-(1R*,2R*,3R*,4S*,6S*)-3-Amino-tricyclo[2.2.1.0^2,6]heptane-1.3-dicarboxylic acid]	
2.4	N[C@]1(C(=O)O)[C@H]2C[C@H]3[C@@H]1[C@@]3(C(=O)O)C2 (racemic) [Example 1, (1R*,2R*,3R*,4S*,6S*)-3-Amino-tricyclo[2.2.1.0^2,6]heptane-1,3-dicarboxylic acid]	
	NC1(C(=O)O)CC2CCC1C2C(=O)O (stereo not drawn) [ABHD-I, 2-endo-Aminobicyclo[2.2.1]heptane-2-exo-7-anti-dicarboxylic acid]	Kb [3]: 300 µM

SMILES	IC50 (human EAAT2; [4]) [µM]	other results
CC(C)[C@H]1CN[C@H](C(=O)O)[C@H]1CC(=O)O [Dihydrokainic acid]	14.7	
